Among the test systems are A498; BT-549; HCC 2998; HL-60; Hs-578T; IGROV-1; MDA-MB-231; MDA-MB-435; Malme-3M; NCI-H226; NCI-H460; OVCAR-4; OVCAR-8; PC-3; RXF 393; SF-268; SK-MEL-2; SK-MEL-5; SNB-19; SW-620.
Test in all cases: inhibition of tumour cell growth, NCI panel, 48 h

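Interpolation was linear, between the two tested concentrations surrounding the appropriate level; five concentrations were tested over 48 hours in 96-well plates. GI50: concentration for 50% inhibition of growth.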 The source made the active and inactive calls. No stated cut-off is given here; in the data, active = GI50 up to about 1.1 µM and inactive = higher.

As to `COc1ccc(NS(=O)(=O)c2ccc3ncn(NS(=O)(=O)c4ccc(I)cc4)c(=O)c3c2)cc1`, the GI50 is > 100 µM (inactive) in the test on A498; > 10 µM (inactive) in the test on BT-549; > 100 µM (inactive) with HCC 2998; 49.3 µM (inactive) in the test on HL-60; > 100 µM (inactive) in the test with Hs-578T; > 100 µM (inactive) with IGROV-1. The GI50 in the test on MDA-MB-231 is > 100 µM (inactive); in the test on MDA-MB-435, 84.1 µM (inactive); in the test with Malme-3M it was > 100 µM (inactive); in the test with NCI-H226, 9.86 µM (inactive); in the test with NCI-H460, > 100 µM (inactive); in the test on OVCAR-4 it was > 100 µM (inactive). Further, the GI50 with OVCAR-8, in the test with PC-3, in the test with RXF 393, with SF-268, with SK-MEL-2 and with SK-MEL-5 was > 100 µM (inactive) throughout. Besides, the GI50 in the test with SNB-19 and in the test with SW-620 was > 100 µM (inactive) each time.
As for `CNC=O`, the GI50 in the test on A498 was > 9710 µM (inactive); with BT-549 it was > 10000 µM (inactive); with HCC 2998, > 3980 µM (inactive); with HL-60 it was > 10000 µM (inactive); in the test with Hs-578T, > 10000 µM (inactive); in the test on IGROV-1 it was > 10000 µM (inactive). Moreover, the GI50 with MDA-MB-231, in the test with MDA-MB-435, with Malme-3M, in the test with NCI-H226, in the test with NCI-H460 and in the test on OVCAR-4 was > 10000 µM (inactive) each time. Besides, the GI50 in the test with OVCAR-8, in the test with PC-3, in the test with RXF 393, in the test on SF-268, in the test with SK-MEL-2 and with SK-MEL-5 was > 10000 µM (inactive) in each case. Also, the GI50 with SNB-19 and in the test on SW-620 was > 10000 µM (inactive) each time.
For the compound `S=c1nc2[nH]c3ccc(Br)cc3c2n[nH]1`, the GI50 in the test with A498 is > 100 µM (inactive); in the test with BT-549, 50.2 µM (inactive); in the test with HCC 2998 it was > 100 µM (inactive); in the test with HL-60, 12 µM (inactive); with Hs-578T, 28.9 µM (inactive); in the test on IGROV-1, 19.3 µM (inactive). Besides, the GI50 with MDA-MB-231 is 49.9 µM (inactive); in the test with MDA-MB-435, 20.7 µM (inactive); with Malme-3M, 83.8 µM (inactive); in the test on NCI-H226 it was 94.6 µM (inactive); with NCI-H460, 63.1 µM (inactive); in the test on OVCAR-4, 25 µM (inactive). In addition, the GI50 with OVCAR-8 is 52.1 µM (inactive); with PC-3 it was 43.1 µM (inactive); in the test on RXF 393, > 100 µM (inactive); with SF-268, 27.9 µM (inactive); in the test on SK-MEL-2, 25.6 µM (inactive); with SK-MEL-5, 36.4 µM (inactive). Moreover, the GI50 with SNB-19 is > 100 µM (inactive); in the test on SW-620, 53 µM (inactive).
For `CCCCN1C(=O)CC2[C@@H]3CCc4cc(OC(C)=O)ccc4C3CC[C@]2(C)C1=O` (stereo not given in full), the GI50 with A498 was > 10 µM (inactive); in the test on BT-549, > 10 µM (inactive); with HCC 2998 it was > 10 µM (inactive); with HL-60, 9.42 µM (inactive); in the test with Hs-578T it was > 10 µM (inactive); in the test with IGROV-1 it was > 10 µM (inactive). The GI50 in the test with MDA-MB-231, with MDA-MB-435, in the test with Malme-3M, in the test on NCI-H226, in the test on NCI-H460 and in the test with OVCAR-4 was > 10 µM (inactive) each time. Further, the GI50 in the test on OVCAR-8, with PC-3, in the test with RXF 393, in the test with SF-268, in the test with SK-MEL-2 and in the test on SK-MEL-5 was > 10 µM (inactive) in each case. Moreover, the GI50 in the test with SNB-19 and in the test on SW-620 was > 10 µM (inactive) throughout.
Take `Fc1ccc(N2C(=S)SC(=N\c3ccccc3)/C2=N/c2ccccc2)cc1`: the GI50 was > 100 µM (inactive) in the test with A498; > 100 µM (inactive) in the test on BT-549; > 100 µM (inactive) with HCC 2998; 53.8 µM (inactive) with HL-60; 81.3 µM (inactive) with Hs-578T; > 43.8 µM (inactive) with IGROV-1. Besides, the GI50 in the test with MDA-MB-231 was > 100 µM (inactive); in the test with MDA-MB-435, > 100 µM (inactive); with Malme-3M it was > 42.9 µM (inactive); in the test with NCI-H226 it was > 100 µM (inactive); in the test with NCI-H460, > 100 µM (inactive); in the test with OVCAR-4, > 57.7 µM (inactive). Besides, the GI50 is > 100 µM (inactive) in the test on OVCAR-8; > 16.7 µM (inactive) in the test with PC-3; > 100 µM (inactive) in the test on RXF 393; > 100 µM (inactive) in the test with SF-268; > 40.5 µM (inactive) in the test on SK-MEL-2; 41.3 µM (inactive) in the test on SK-MEL-5. Further, the GI50 with SNB-19 and in the test with SW-620 was > 100 µM (inactive) throughout.
As for `C=C(CN(C)C)C(=O)c1ccc(OC)cc1`, the GI50 was 9.79 µM (inactive) in the test with A498; 6.56 µM (inactive) with BT-549; 14.2 µM (inactive) in the test with HCC 2998; 0.198 µM (active) in the test on HL-60; 15.5 µM (inactive) in the test on Hs-578T; 10.7 µM (inactive) in the test with IGROV-1. Also, the GI50 is 11.6 µM (inactive) in the test on MDA-MB-231; 10.5 µM (inactive) in the test with MDA-MB-435; 1.48 µM (inactive) in the test with Malme-3M; 6.76 µM (inactive) in the test on NCI-H226; 21.8 µM (inactive) with NCI-H460; 5.26 µM (inactive) with OVCAR-4. Further, the GI50 in the test on OVCAR-8 was 1.07 µM (active); with PC-3 it was 15.2 µM (inactive); with RXF 393, 10 µM (inactive); in the test on SF-268, 6.05 µM (inactive); with SK-MEL-2, 4.61 µM (inactive); in the test on SK-MEL-5 it was 8.24 µM (inactive). Further, the GI50 is 20 µM (inactive) in the test with SNB-19 and 0.771 µM (active) in the test with SW-620.
In the case of `C=C(C)c1nc(Oc2ccccc2)nc(Oc2ccccc2)n1`, the GI50 in the test on A498 was 17.3 µM (inactive); with BT-549, 3.32 µM (inactive); in the test with HCC 2998, 3.99 µM (inactive); in the test with HL-60 it was 2.06 µM (inactive); in the test with Hs-578T, 4.49 µM (inactive); in the test with IGROV-1, 9.38 µM (inactive). For the same compound, the GI50 was 14.1 µM (inactive) in the test on MDA-MB-231; 10.3 µM (inactive) in the test with MDA-MB-435; 13.9 µM (inactive) with Malme-3M; 19.9 µM (inactive) with NCI-H226; 9.04 µM (inactive) in the test with NCI-H460; 11.2 µM (inactive) with OVCAR-4. Also, the GI50 in the test on OVCAR-8 is 4.8 µM (inactive); in the test on PC-3 it was 14.6 µM (inactive); in the test on RXF 393 it was 2.4 µM (inactive); in the test on SF-268, 4.79 µM (inactive); in the test on SK-MEL-2 it was 2.21 µM (inactive); in the test on SK-MEL-5 it was 13.7 µM (inactive). Besides, the GI50 was 9.33 µM (inactive) in the test on SNB-19 and 3.82 µM (inactive) with SW-620.

(Values after ChEMBL document CHEMBL1201862, “PubChem BioAssay data set” (2004).)
